According to US7341836B2, “Modified cyclic nucleotide gated ion channels” (The Regents of the University of Colorado, priority 2001, dated 2008):
Entries after “also recorded” stand apart in the source; their conditions may differ.

Assays:
[1] = system: PDE activity in GH4C1 cells; assay: Effect of PDE inhibitors, forskolin and VIP on cAMP levels (Ca2+ influx through CNG channels); format: cell-based, rat; details: for d(ΔF/F0)/dt: basal cAMP, inhibitor concentration (μM); for d(ΔF/F0)/dt / Ca2+ influx induced by the PDE inhibitor alone (basal cAMP): C460W/E583M channels; for Ca2+ influx induced by the PDE inhibitor alone (basal cAMP): no AC stimulation; for effect on forskolin-induced Ca2+ influx / PDE activity: Δ61-90/C460W/E583M channels, 10 μM forskolin
Outline: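 GH4C1 rat pituitary cells expressing high-affinity C460W/E583M or Δ61-90/C460W/E583M CNG channels (adenovirus), with 1 μM nimodipine at time zero; cAMP read as Ca2+ influx rate d(ΔF/F0)/dt. PDE inhibitors or 100 μM IBMX added at 60 s, then 10 μM forskolin or 100 nM VIP at 240 s; mean±SE.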

[2] = molecular target: PDE V (UniProt O76074); details: cited from earlier work
[3] = molecular target: T1, PDE X (Mus musculus, UniProt Q8CA95); details: cited from earlier work
T1 construct: host or cells: heterologously expressed
T1 sequence (Q8CA95 1-790): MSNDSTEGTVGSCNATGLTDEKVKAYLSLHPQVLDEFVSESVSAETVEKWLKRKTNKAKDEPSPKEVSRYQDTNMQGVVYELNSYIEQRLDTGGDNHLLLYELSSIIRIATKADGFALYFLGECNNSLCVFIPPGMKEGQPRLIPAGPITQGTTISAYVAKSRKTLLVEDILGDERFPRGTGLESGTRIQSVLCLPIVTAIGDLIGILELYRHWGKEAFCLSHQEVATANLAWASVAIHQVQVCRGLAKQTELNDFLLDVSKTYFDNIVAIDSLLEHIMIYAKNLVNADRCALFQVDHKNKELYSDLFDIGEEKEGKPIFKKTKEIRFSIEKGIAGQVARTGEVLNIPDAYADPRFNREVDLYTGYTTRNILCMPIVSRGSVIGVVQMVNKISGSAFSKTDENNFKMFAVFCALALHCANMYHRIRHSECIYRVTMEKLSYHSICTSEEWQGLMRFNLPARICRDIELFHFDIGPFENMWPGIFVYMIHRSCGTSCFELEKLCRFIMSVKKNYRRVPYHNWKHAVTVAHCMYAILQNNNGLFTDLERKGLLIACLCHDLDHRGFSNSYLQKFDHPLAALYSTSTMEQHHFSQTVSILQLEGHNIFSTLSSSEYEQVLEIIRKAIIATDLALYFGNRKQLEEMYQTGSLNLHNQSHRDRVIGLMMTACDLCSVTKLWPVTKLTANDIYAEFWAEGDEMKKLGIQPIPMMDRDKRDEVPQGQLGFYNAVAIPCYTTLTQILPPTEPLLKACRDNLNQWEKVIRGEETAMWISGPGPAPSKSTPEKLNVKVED

Row | Compound | d(ΔF/F0)/dt [1] [s⁻¹] | IC50 [2] [µM] | IC50 [3] [µM] | Ca2+ influx induced by the PDE inhibitor alone (basal cAMP) [1] | effect on forskolin-induced Ca2+ influx / PDE activity [1]
1 | CCCCCC[C@@H]([C@@H](C)O)n1cnc2c(N)ncnc21 (racemic) [EHNA] | 0.0029 ± 0.0011 | > 500 | 69 |  | 
2 | CC(C)Cn1c(=O)n(C)c(=O)c2[nH]cnc21 [IBMX, 3-isobutyl-1-methylxanthine] |  | 4 to 7 | 2.6 | induced Ca^2+ influx through CNG channels | significantly inhibited PDE activity; also recorded: increase forskolin-induced Ca^2+ influx through CNG channels
3 | CCCCOc1cc(CC2CNC(=O)N2)ccc1OC (stereo not drawn) [RO-20-1724, 4-(3-butoxy-4-methoxybenzyl)-2-imidazolidinone] | 0 | 250 |  | No RO-20-1724- or rolipram-sensitive PDE was observed | also inhibited PDE activity; also recorded: increase forskolin-induced Ca^2+ influx through CNG channels
4 | COc1ccc(C2CNC(=O)C2)cc1OC1CCCC1 (stereo not drawn) [Rolipram] | 0 |  | 47 | No RO-20-1724- or rolipram-sensitive PDE was observed | also inhibited PDE activity; also recorded: increase forskolin-induced Ca^2+ influx through CNG channels
